The text below walks through data of ChEMBL document CHEMBL4342527, “Discovery of Novel Fungal Lanosterol 14α-Demethylase (CYP51)/Histone Deacetylase Dual Inhibitors to Treat Azole-Resistant Candidiasis” (J Med Chem, 2020).

≈ marks a conversion by molar mass, not a printed value. Calls of active or inactive are those of the source. No cut-off for these calls is given here. Bounds are passed on as bounds.

Data set [1] deals with T1, Lanosterol 14-alpha demethylase (Candida albicans (strain SC5314 / ATCC MYA-2876) (Yeast), UniProt P10613). Briefly: Inhibition of CYP51 in azole-resistant Candida albicans 0304103 assessed as unknown sterol 3 level at 0.5 ug/ml after 24 hrs by GC-MS analysis (reference value: 4.78%). The arrangement: scale not given: the % may be the effect or the level left.
T1 sequence (P10613 whole entry): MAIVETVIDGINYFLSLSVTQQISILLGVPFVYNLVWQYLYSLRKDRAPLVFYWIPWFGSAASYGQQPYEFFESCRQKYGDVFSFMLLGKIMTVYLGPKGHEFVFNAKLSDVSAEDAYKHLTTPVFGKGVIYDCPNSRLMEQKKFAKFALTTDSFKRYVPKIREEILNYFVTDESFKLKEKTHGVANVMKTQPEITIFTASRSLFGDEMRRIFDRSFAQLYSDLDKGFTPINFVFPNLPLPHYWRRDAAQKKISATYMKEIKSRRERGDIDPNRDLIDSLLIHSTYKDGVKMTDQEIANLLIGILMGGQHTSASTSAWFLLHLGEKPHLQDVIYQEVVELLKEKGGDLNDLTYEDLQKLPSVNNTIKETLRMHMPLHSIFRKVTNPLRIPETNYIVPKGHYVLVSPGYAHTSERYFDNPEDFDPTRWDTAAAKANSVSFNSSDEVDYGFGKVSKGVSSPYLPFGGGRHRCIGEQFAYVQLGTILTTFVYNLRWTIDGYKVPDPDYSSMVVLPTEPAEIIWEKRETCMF
The test system of data set [2] is Candida albicans. The data set is described as follows: Inhibition of biofilm formation in azole resistant Candida albicans 0304103 at 64 ug/ml after 24 hrs by XTT assay relative to control. The following applies: Candida albicans, 0304103, 24 h. It counts as functional.
Data set [3] deals with T1, Lanosterol 14-alpha demethylase. Briefly: Inhibition of CYP51 in azole-resistant Candida albicans 0304103 assessed as unknown sterol 2 level at 0.5 ug/ml after 24 hrs by GC-MS analysis (reference value: 6.77%). The arrangement: scale not given: the % may be the effect or the level left.
For data set [4], the system named is Candida albicans. Briefly: Antifungal activity against Candida albicans 0304103 assessed as effect on filamentation up to 32 ug/ml after 4 hrs by differential interference contrast microscopic analysis. It counts as functional, organism-based.
Data set [5] addresses T1, Lanosterol 14-alpha demethylase. Briefly: Inhibition of CYP51 in azole-resistant Candida albicans 0304103 assessed as unknown sterol 5 level at 0.5 ug/ml after 24 hrs by GC-MS analysis (reference value: 4.87%). The arrangement: scale not given: the % may be the effect or the level left.
Data set [6] has as its system Candida albicans. Briefly: Inhibition of HDAC in azole-resistant Candida albicans 0304103 assessed as reduction in CDR2 gene expression at 32 ug/ml after 16 hrs by SYBR Green-1 dye based RT-PCR analysis. The following applies: 304103.
Data set [7] concerns Candida albicans. Briefly: Antifungal activity against azole-resistant Candida albicans 4108 after 48 hrs by spectrophotometry-based serial microdilution method. The data set is classed as functional. The following applies: Candida albicans, 4108, 48 h.
The next data set relates to Candida tropicalis. The data set is described as follows: Antifungal activity against azole-resistant Candida tropicalis 5008 after 48 hrs by spectrophotometry-based serial microdilution method. It counts as functional. The following applies: Candida tropicalis, 5008, 48 h.
Data set [8] has as its target T1, Lanosterol 14-alpha demethylase. The data set is described as follows: Inhibition of CYP51 in azole-resistant Candida albicans 0304103 assessed as reduction in ERG11 gene expression at 32 ug/ml after 16 hrs by SYBR Green-1 dye based RT-PCR analysis. Also noted: species or system 304103.
For data set [9], the system named is Candida albicans. Briefly: Antifungal activity against azole-resistant Candida albicans 7781 after 48 hrs by spectrophotometry-based serial microdilution method. It counts as functional. The following applies: Candida albicans, 7781, 48 h.
The target in data set [10] is T1, Lanosterol 14-alpha demethylase. Briefly: Inhibition of CYP51 in azole-resistant Candida albicans 0304103 assessed as ergosterol content at 0.5 ug/ml after 24 hrs by GC-MS analysis (reference value: 75.21%). The arrangement: scale not given: the % may be the effect or the level left.
Data set [11] has the same target. The data set is described as follows: Inhibition of CYP51 in azole-resistant Candida albicans 0304103 assessed as unknown sterol 1 level at 0.5 ug/ml after 24 hrs by GC-MS analysis (reference value: 2.91%). The arrangement: scale not given: the % may be the effect or the level left.
The subject of data set [12] is Candida albicans. The data set is described as follows: Antifungal activity against azole-sensitive Candida albicans SC5314 after 48 hrs by spectrophotometry-based serial microdilution method. The following applies: Candida albicans, SC5314, 48 h; read-out: MIC80. It counts as functional.
Data set [13] has as its system Candida albicans. Briefly: Inhibition of HDAC in azole-resistant Candida albicans 0304103 assessed as reduction in CDR1 gene expression at 32 ug/ml after 16 hrs by SYBR Green-1 dye based RT-PCR analysis. The following applies: 304103.
The target of data set [14] is T1, Lanosterol 14-alpha demethylase. The data set is described as follows: Inhibition of CYP51 in azole-resistant Candida albicans 0304103 assessed as lanosterol level at 0.5 ug/ml after 24 hrs by GC-MS analysis (reference value: 4.15%). Also noted: scale not given: the % may be the effect or the level left.
For data set [15], the system named is Candida albicans. Briefly: Antifungal activity against azole-resistant Candida albicans 0304103 after 48 hrs by spectrophotometry-based serial microdilution method. The following applies: Candida albicans, 0304103, 48 h. The data set is classed as functional.
For data set [16], the system named is Candida albicans. The following applies: 0304103, 32 ug/ml.
Description: Inhibition of HDAC in azole-resistant Candida albicans 0304103 assessed as decrease in rhodamine 6G efflux at 32 ug/ml after 16 hrs by fluorimetry
For data set [17], the target named is T1, Lanosterol 14-alpha demethylase. Briefly: Inhibition of CYP51 in azole-resistant Candida albicans 0304103 assessed as unknown sterol 4 level at 0.5 ug/ml after 24 hrs by GC-MS analysis (reference value: 1.29%). The arrangement: scale not given: the % may be the effect or the level left.
A further data set relates to Cryptococcus neoformans. Briefly: Antifungal activity against azole-sensitive Cryptococcus neoformans H99 after 72 hrs by spectrophotometry-based serial microdilution method. The data set is classed as functional, var grubii H99. The following applies: Cryptococcus neoformans, var grubii H99 , 72 h; read-out: MIC80.
Data set [18] has as its system Candida albicans. The data set is described as follows: Inhibition of HDAC in azole-resistant Candida albicans 0304103 assessed as reduction in MDR1 gene expression at 32 ug/ml after 16 hrs by SYBR Green-1 dye based RT-PCR analysis. The following applies: 304103.
The target of another data set is Histone deacetylase. Briefly: Inhibition of HDAC in HUVEC using Boc-Lys(Ac)-AMC as substrate preincubated for 12 hrs followed by substrate addition and measured after 4 hrs by fluorimetry. It counts as ADME, cell-based, Homo sapiens.

Consider `OC(Cn1cncn1)(Cn1cncn1)c1ccc(F)cc1F` [FLUCONAZOLE], for which the Activity is on record as 4.7% in [1]; 7.5% in data set [3]; 4.66% in [5]; 74.97% in data set [10]; 3.06% in data set [11]; 3.94% in data set [14]. Moreover, in data set [17], the Activity is reported as 1.17%. In the data set on Candida albicans [2], this compound showed an inhibition at 64 µg/mL of 22.9%. The result with Candida albicans [4] was inactive. In addition, the inhibition entry in the data set with Candida albicans [6], with Candida albicans [13], in the data set with Candida albicans [16] and in the data set with Candida albicans [18] was “inactive” in each case. The MIC80 was above 64 µg/mL against Candida albicans [7]; above 64 µg/mL in the data set on Candida tropicalis; above 64 µg/mL in the data set on Candida albicans [9]; 0.5 µg/mL (≈ 1.63 µM) with Candida albicans [12]; above 64 µg/mL against Candida albicans [15]; 2 µg/mL (≈ 6.53 µM) with Cryptococcus neoformans. In addition, the “inhibition (INH)” value in [8] is “Not Active”. The IC50 against Histone deacetylase was above 40 µM.

Take `CN(Cc1cccc(OCCCOc2ccc(CC(=O)NO)cc2)c1)CC(O)(Cn1cncn1)c1ccc(F)cc1F` (racemic): the MIC80 in the data set with Candida albicans [7] is 2 µg/mL (≈ 3.44 µM); against Candida tropicalis, 2 µg/mL (≈ 3.44 µM); with Candida albicans [9], 2 µg/mL (≈ 3.44 µM); in the data set on Candida albicans [12], 2 µg/mL (≈ 3.44 µM); in the data set on Candida albicans [15], 4 µg/mL (≈ 6.88 µM); in the data set on Cryptococcus neoformans, 1 µg/mL (≈ 1.72 µM).

As to `O=C(Cc1ccc(OCCCOc2ccc(CN(CC(O)(Cn3cncn3)c3ccc(F)cc3F)C3CC3)cc2)cc1)NO` (racemic), the MIC80 with Candida albicans [7] is 32 µg/mL (≈ 52.7 µM); in the data set on Candida tropicalis it was 16 µg/mL (≈ 26.3 µM); against Candida albicans [9], 4 µg/mL (≈ 6.58 µM); in the data set on Candida albicans [12], 8 µg/mL (≈ 13.2 µM); in the data set with Candida albicans [15], 8 µg/mL (≈ 13.2 µM); in the data set on Cryptococcus neoformans it was 4 µg/mL (≈ 6.58 µM).

As to `CN(Cc1ccc(CCCC(=O)Nc2ccc(C(=O)NO)cc2)cc1)CC(O)(Cn1cncn1)c1ccc(F)cc1F` (racemic), the MIC80 in the data set with Candida albicans [7] turned out to be 32 µg/mL (≈ 55.3 µM); with Candida tropicalis, 8 µg/mL (≈ 13.8 µM); in the data set with Candida albicans [9], 8 µg/mL (≈ 13.8 µM); with Candida albicans [12], 4 µg/mL (≈ 6.91 µM); with Candida albicans [15] it was 16 µg/mL (≈ 27.7 µM); with Cryptococcus neoformans, 8 µg/mL (≈ 13.8 µM).

Regarding `O=C(NO)c1ccc(OCCCc2ncn(CC(O)(Cn3cncn3)c3ccc(F)cc3F)n2)cc1` (racemic), the MIC80 in the data set with Candida albicans [7] was 32 µg/mL (≈ 64.1 µM); against Candida tropicalis, 64 µg/mL (≈ 128 µM); in the data set with Candida albicans [9] it was 8 µg/mL (≈ 16 µM); in the data set with Candida albicans [12], 8 µg/mL (≈ 16 µM); in the data set on Candida albicans [15] it was 64 µg/mL (≈ 128 µM); in the data set on Cryptococcus neoformans, 64 µg/mL (≈ 128 µM).

As for `CN(Cc1ccc(-n2cnn(CCCCCCC(=O)NO)c2=O)cc1)CC(O)(Cn1cncn1)c1ccc(F)cc1F` (racemic), the MIC80 against Candida albicans [7] was determined as 64 µg/mL (≈ 109 µM); with Candida tropicalis, 64 µg/mL (≈ 109 µM); against Candida albicans [9] it was 32 µg/mL (≈ 54.7 µM); in the data set with Candida albicans [12], 64 µg/mL (≈ 109 µM); against Candida albicans [15], 16 µg/mL (≈ 27.4 µM); in the data set with Cryptococcus neoformans it was 8 µg/mL (≈ 13.7 µM).

For the compound `O=C(Cc1ccc(OCCCc2ncn(CC(O)(Cn3cncn3)c3ccc(F)cc3F)n2)cc1)NO` (racemic), the MIC80 in the data set with Candida albicans [7] is above 64 µg/mL; in the data set with Candida tropicalis, 64 µg/mL (≈ 125 µM); in the data set with Candida albicans [9], 8 µg/mL (≈ 15.6 µM); with Candida albicans [12] it was 32 µg/mL (≈ 62.3 µM); against Candida albicans [15], 32 µg/mL (≈ 62.3 µM); in the data set on Cryptococcus neoformans, 32 µg/mL (≈ 62.3 µM).

`CN(Cc1ccccc1OCCCOc1ccc(C(=O)NO)cc1)CC(O)(Cn1cncn1)c1ccc(F)cc1F` (racemic): the MIC80 against Candida albicans [7] worked out at 1 µg/mL (≈ 1.76 µM); with Candida tropicalis, 8 µg/mL (≈ 14.1 µM); in the data set with Candida albicans [9], 4 µg/mL (≈ 7.05 µM); in the data set on Candida albicans [12], 4 µg/mL (≈ 7.05 µM); in the data set with Candida albicans [15], 4 µg/mL (≈ 7.05 µM); with Cryptococcus neoformans, 0.5 µg/mL (≈ 0.881 µM).

For the compound `CCC(C)n1ncn(-c2ccc(N3CCN(c4ccc(OCC5COC(Cn6cncn6)(c6ccc(Cl)cc6Cl)O5)cc4)CC3)cc2)c1=O` (centres undefined) [ITRACONAZOLE], the MIC80 was above 64 µg/mL in the data set on Candida albicans [7]; above 64 µg/mL in the data set on Candida tropicalis; above 64 µg/mL against Candida albicans [9]; 0.5 µg/mL (≈ 0.709 µM) in the data set on Candida albicans [12]; above 64 µg/mL against Candida albicans [15]; 0.125 µg/mL (≈ 0.177 µM) in the data set on Cryptococcus neoformans.
